Test results from US6515001B2, “IL-8 receptor ligands-drugs for inflammatory and autoimmune diseases” (Chemokine Therapeutic Corporation, priority 2001, dated 2003).

Key:
[1] = target: IL-8 receptors (CXCR-1 and CXCR-2); assay: Inhibition of binding of I125 labeled IL-8 to IL-8 receptors; settings: I125 labeled IL-8 as competitor; read-out: IC50, inhibition of binding of IL-8 to CXCR-1 and/or CXCR-2
Procedure: This example discloses the ability of compounds of the invention, such as benzopyrone derivatives, such as CTCM192 (1), to inhibit binding of IL-8 to IL-8 receptors (CXCR-1 and CXCR-2). The binding studies were conducted using I^125 labeled IL-8 as competitor.

[2] = test system: IL-8-induced [Ca2+]i mobilization in THP1 cells; assay: Inhibition of IL-8-induced intracellular [Ca2+]i mobilization in THP1 cells; assay type: cell-based; settings: Homo sapiens, THP-1; Fura-2,AM loaded THP1 cells, incubated 60 min prior to induction by 12 nM IL-8
Procedure: A rapid, transient rise in the free cytosolic Ca^2+ concentration ([Ca^2+])i) is one of the events associated with the Chemokine mediated induction of the associated receptors and is assumed to be involved in many of the subsequent cellular reactions. Both Ca^2+ release from intracellular stores and Ca^2+ influx from the extracellular space contribute to the rise in [Ca^2+]i. […] Fura-2,AM loaded THP1 cells were incubated with CTCM192 for 60 min prior to induction of [Ca^2+]i mobilization by 12 nM IL-8. Results illustrate the effect of CTCM192 (1) on IL-8-induced Ca^2+ mobilization.
In accordance with this aspect of the invention, the benzopyrone derivative, Geetokine, such as compound 1 or corresponding salts may be used for the treatment of a wide range of inflammatory diseases such as gout, arthritis osteoarthritis, rheumatoid arthritis, and ARDS.

IC50 [1]: 45 µM
IC50 [2]: 0.34 µM
SMILES: Cc1csc(-c2coc3cc(OC(=O)C(Cc4ccccc4)NC(=O)OCc4ccccc4)cc(C)c3c2=O)n1 (centres unmarked) [Compound 1, [7-[5-methylbenzopyrone-5′(3′-methyl)-thiazole]-phenylalanine-benyl ester]]
